What was measured:
Format in all cases: in vivo
Diabrotica speciosa = experiment: Example 11 Trial 2 potato, Diabrotica speciosa (DIABSC) control; conditions: appl. AB
Description: Potatoes—Diabrotica speciosa (Cucurbit Beetle)—DIABSC A water volume of 400 L water/ha was used for each application. Application A made at the occurrence of the insects; application B was made 7 days later. Each plot was 15 m^2. 5.15 insects per 20 plants were present at the time of application.

[1] = system: Leptinotarsa decemlineata; experiment: Example 8 Trial 2 potato, Leptinotarsa decemlineata (LEPTNDE) control; conditions: appl. AB
Description: Trial 2: Potatoes, 4 replicates per plot, each plot at least 25 m^2. A water volume of 200 L water/ha was used for each application. Two applications were made at a 14d interval.
Application made at the occurrence of the insects. Application A was made at Stage BBCH 39-41, application B was made 14 days later at Stage BBCH 41-44.
Insects present at the time of application: at App A: 9/10 plants at App B in untreated: 44/10 plants

Spodoptera exigua = experiment: Example 1 tomato plot trial, Spodoptera exigua (beet armyworm) control; conditions: appl. A, 15 DAA
Description: Tomato—Spodoptera exigua (Beet Armyworm)
Trial conducted in 4 replicates on plots of 10 plants each. Application A was made at the occurrence of the insects.
The statistical design of this study was a completely randomized blocks design including 4 replicates. The homogeneity of variance was tested for all treatments and assessment dates by means of the Bartlett's test. In order to study the effect of the applied treatments for each assessment data, means were compared using Student-Newman-Keuls (p=0.05).

Potato = experiment: Example 8 Trial 1 phytotoxicity, general injury (PHYGEN) on potato; design: scale not given here; conditions: appl. AB
Description: Trial 1: Potatoes, variety Lady Amarilla, 4 replicates per plot, each plot at least 25 m^2. A water volume of 200 L water/ha was used for each application. Two applications were made at a 14d interval.
Application made at the occurrence of the insects. Application A was made at Stage BBCH 36, application B was made 14 days later at Stage BBCH 51.

Halyomorpha halys = experiment: Example 13 egg trial, egg mass immersion bioassay on Halyomorpha halys; conditions: for % Live instars emerged: egg mass immersion
Description: Halyomorpha halys were obtained from a lab strain that was mass reared for several generations from a field strain. Egg masses were provided at the same stage (2-3 days before hatching) in order to test same egg masses conditions.
Bioassay, consisting in egg masses immersion, was carried out dipping the egg masses by means of lab forceps for two second inside three different PA product concentrations (100 ppm, 50 ppm and 33 ppm), one treatment with a commercial standard (Trebon up, a.i., Etofenprox) and a treatment with only water (untreated Check) were performed. 4 replicates were performed (1 egg mass is considered 1 replicate).
Assessments were conducted at 1, 2, 4 days after application, egg mortality and larvae hatching from eggs were recorded, raw data were processed with ARM software. All the statistical procedures [Student-Newman-Keuls (SNK)], Anova and other calculation analysis were performed using the ARM 2020.0 software.

Tuta absoluta = experiment: Example 2 tomato trial, Tuta absoluta (tomato leafminer) control; conditions: appl. AB
Description: Tomato—Tuta absoluta (Tomato Leafminer)
Trial conducted in 4 replicates on plots of 25 plants each. Application was made at the occurrence of the insects.
Insects present at the time of application: at App A 0.3/plot, at App B in untreated: 34/plot
Efficacy is assessed by checking on the leaves the % of damage caused by the insects.

[2] = Halyomorpha halys, read-out: % Egg mortality

**Q.** What does the source list for CCCCCCCCC(=O)O [PA, pelargonic acid]?
**A.** # Insects, 20 plants (Diabrotica speciosa; 487.5 g/ha (0.75 L/ha), 3 DAA): 38.10b % UNCK; # Insects, 20 plants (Diabrotica speciosa; 487.5 g/ha (0.75 L/ha), 3 DAB): 25.00ab % UNCK; # Insects, 20 plants (Diabrotica speciosa; 650 g/ha (1 L/ha), 3 DAA): 61.90bc % UNCK; # Insects, 20 plants (Diabrotica speciosa; 650 g/ha (1 L/ha), 3 DAB): 25.00ab % UNCK; # Insects, 20 plants (Diabrotica speciosa; 975 g/ha (1.5 L/ha), 7 DAA): 100.00d % UNCK; # Insects, 20 plants (Diabrotica speciosa; 975 g/ha (1.5 L/ha), 7 DAB): 100.00c % UNCK; # Insects, 20 plants (Diabrotica speciosa; 975 g/ha (1.5 L/ha), 10 DAB): 100.00c % UNCK; COUINS # L1-L3/10 plants ([1]; 585 g/ha (0.9 L/ha), 7 DAA): 51.7 % UNCK; COUINS # L4/10 plants ([1]; 585 g/ha (0.9 L/ha), 7 DAA): 45 % UNCK; COUINS # L1-L3/10 plants ([1]; 585 g/ha (0.9 L/ha), 10 DAB): 68.6 % UNCK; COUINS # L4/10 plants ([1]; 585 g/ha (0.9 L/ha), 10 DAB): 64.2 % UNCK; COUINS Adults/10 plants ([1]; 585 g/ha (0.9 L/ha), 10 DAB): 48 % UNCK; COUINS # L1-L3/10 plants ([1]; 975 g/ha (1.5 L/ha), 7 DAA): 48.5 % UNCK; COUINS # L4/10 plants ([1]; 975 g/ha (1.5 L/ha), 7 DAA): 35 % UNCK; COUINS # L1-L3/10 plants ([1]; 975 g/ha (1.5 L/ha), 10 DAB): 76 % UNCK; COUINS # L4/10 plants ([1]; 975 g/ha (1.5 L/ha), 10 DAB): 77 % UNCK; COUINS Adults/10 plants ([1]; 975 g/ha (1.5 L/ha), 10 DAB): 55 % UNCK; COUINS # L1-L3/10 plants ([1]; 1300 g/ha (2.0 L/ha), 7 DAA): 70.9 % UNCK; COUINS # L4/10 plants ([1]; 1300 g/ha (2.0 L/ha), 7 DAA): 59.9 % UNCK; COUINS # L1-L3/10 plants ([1]; 1300 g/ha (2.0 L/ha), 10 DAB): 89.8 % UNCK; COUINS # L4/10 plants ([1]; 1300 g/ha (2.0 L/ha), 10 DAB): 86.2 % UNCK; COUINS Adults/10 plants ([1]; 1300 g/ha (2.0 L/ha), 10 DAB): 69 % UNCK; COUINS # L1-L3/10 plants ([1]; 2600 g/ha (4.0 L/ha), 7 DAA): 73.4 % UNCK; COUINS # L4/10 plants ([1]; 2600 g/ha (4.0 L/ha), 7 DAA): 80.9 % UNCK; COUINS # L1-L3/10 plants ([1]; 2600 g/ha (4.0 L/ha), 10 DAB): 93.4 % UNCK; COUINS # L4/10 plants ([1]; 2600 g/ha (4.0 L/ha), 10 DAB): 92.8 % UNCK; COUINS Adults/10 plants ([1]; 2600 g/ha (4.0 L/ha), 10 DAB): 78.9 % UNCK; Damage severity (1-4), plant (Spodoptera exigua; 650 g/ha (1 L/ha)): 61.37 a % UNCK; Nr damaged leaves (Spodoptera exigua; 650 g/ha (1 L/ha)): 63.30 a % UNCK; Nr of larvae (Spodoptera exigua; 650 g/ha (1 L/ha)): 73.85 b % UNCK; Damage severity (1-4), plant (Spodoptera exigua; 1300 g/ha (2 L/ha)): 61.01 a % UNCK; Nr damaged leaves (Spodoptera exigua; 1300 g/ha (2 L/ha)): 71.72 a % UNCK; Nr of larvae (Spodoptera exigua; 1300 g/ha (2 L/ha)): 79.47 b % UNCK; Damage severity (1-4), plant (Spodoptera exigua; 2600 g/ha (4 L/ha)): 64.85 a % UNCK; Nr damaged leaves (Spodoptera exigua; 2600 g/ha (4 L/ha)): 63.54 a % UNCK; Nr of larvae (Spodoptera exigua; 2600 g/ha (4 L/ha)): 90.18 a % UNCK; Phytotoxicity - General Injury (PHYGEN) (Potato; 585 g/ha (0.9 L/ha), 3 DAB): 0; Phytotoxicity - General Injury (PHYGEN) (Potato; 585 g/ha (0.9 L/ha), 7 DAA): 0; Phytotoxicity - General Injury (PHYGEN) (Potato; 585 g/ha (0.9 L/ha), 8 DAB): 0; Phytotoxicity - General Injury (PHYGEN) (Potato; 585 g/ha (0.9 L/ha), 15 DAA): 0; Phytotoxicity - General Injury (PHYGEN) (Potato; 975 g/ha (1.5 L/ha), 3 DAB): 0; Phytotoxicity - General Injury (PHYGEN) (Potato; 975 g/ha (1.5 L/ha), 7 DAA): 1.3; Phytotoxicity - General Injury (PHYGEN) (Potato; 975 g/ha (1.5 L/ha), 8 DAB): 0; Phytotoxicity - General Injury (PHYGEN) (Potato; 975 g/ha (1.5 L/ha), 15 DAA): 0; Phytotoxicity - General Injury (PHYGEN) (Potato; 1300 g/ha (2.0 L/ha), 3 DAB): 1; Phytotoxicity - General Injury (PHYGEN) (Potato; 1300 g/ha (2.0 L/ha), 7 DAA): 1; Phytotoxicity - General Injury (PHYGEN) (Potato; 1300 g/ha (2.0 L/ha), 8 DAB): 1; Phytotoxicity - General Injury (PHYGEN) (Potato; 1300 g/ha (2.0 L/ha), 15 DAA): 0; Phytotoxicity - General Injury (PHYGEN) (Potato; 2600 g/ha (4.0 L/ha), 3 DAB): 4.5; Phytotoxicity - General Injury (PHYGEN) (Potato; 2600 g/ha (4.0 L/ha), 7 DAA): 6; Phytotoxicity - General Injury (PHYGEN) (Potato; 2600 g/ha (4.0 L/ha), 8 DAB): 5; Phytotoxicity - General Injury (PHYGEN) (Potato; 2600 g/ha (4.0 L/ha), 15 DAA): 4; mortality at 33 ppm (Halyomorpha halys; [2]): 17%; mortality at 50 ppm (Halyomorpha halys; [2]): 46%; mortality at 100 ppm (Halyomorpha halys; [2]): 65%; % Live instars emerged (Halyomorpha halys; 33 ppm ai (3.3 ml/l)): 47%; % Live instars emerged (Halyomorpha halys; 50 ppm ai (5 ml/l)): 18%; % Live instars emerged (Halyomorpha halys; 100 ppm ai (10 ml/l)): 5%; # Damaged leaves (Tuta absoluta; 1300 g/ha (2 L/ha), 3 DAA): 47 % UNCK; # Damaged leaves (Tuta absoluta; 1300 g/ha (2 L/ha), 3 DAB): 31 % UNCK; # Damaged leaves (Tuta absoluta; 1300 g/ha (2 L/ha), 7 DAA): 68 % UNCK; # Damaged leaves (Tuta absoluta; 1300 g/ha (2 L/ha), 7 DAB): 32 % UNCK; # Damaged leaves (Tuta absoluta; 1300 g/ha (2 L/ha), 14 DAA): 70 % UNCK; # Damaged leaves (Tuta absoluta; 1950 g/ha (3 L/ha), 3 DAA): 51 % UNCK; # Damaged leaves (Tuta absoluta; 1950 g/ha (3 L/ha), 3 DAB): 42 % UNCK; # Damaged leaves (Tuta absoluta; 1950 g/ha (3 L/ha), 7 DAA): 69 % UNCK; # Damaged leaves (Tuta absoluta; 1950 g/ha (3 L/ha), 7 DAB): 46 % UNCK; # Damaged leaves (Tuta absoluta; 1950 g/ha (3 L/ha), 14 DAA): 72 % UNCK; # Damaged leaves (Tuta absoluta; 2600 g/ha (4 L/ha), 3 DAA): 58 % UNCK; # Damaged leaves (Tuta absoluta; 2600 g/ha (4 L/ha), 3 DAB): 47 % UNCK; # Damaged leaves (Tuta absoluta; 2600 g/ha (4 L/ha), 7 DAA): 74 % UNCK; # Damaged leaves (Tuta absoluta; 2600 g/ha (4 L/ha), 7 DAB): 42 % UNCK; # Damaged leaves (Tuta absoluta; 2600 g/ha (4 L/ha), 14 DAA): 78 % UNCK; # Damaged leaves (Tuta absoluta; 5200 g/ha (8 L/ha), 3 DAA): 59 % UNCK; # Damaged leaves (Tuta absoluta; 5200 g/ha (8 L/ha), 3 DAB): 42 % UNCK; # Damaged leaves (Tuta absoluta; 5200 g/ha (8 L/ha), 7 DAA): 75 % UNCK; # Damaged leaves (Tuta absoluta; 5200 g/ha (8 L/ha), 7 DAB): 49 % UNCK; # Damaged leaves (Tuta absoluta; 5200 g/ha (8 L/ha), 14 DAA): 75 % UNCK

— patent US20250143299A1, “METHODS AND COMPOSITIONS FOR CONTROLLING PESTS IN VEGETABLES” (Globachem NV, priority 2022, published 2025)
